Data reported in ChEMBL document CHEMBL1255305, “Affinity of doripenem and comparators to penicillin-binding proteins in Escherichia coli and Pseudomonas aeruginosa” (Antimicrob Agents Chemother, 2008).
≈ marks a conversion by molar mass, not a printed value. Calls of active or inactive are those of the source. No cut-off for these calls is given here.

Key:
[1] = Inhibition of Bocillin FL binding to PBP4 in Pseudomonas aeruginosa PAO1 membranes
[2] = Inhibition of Bocillin FL binding to PBP5/6 in Pseudomonas aeruginosa PAO1 membranes
[3] = Inhibition of Bocillin FL binding to PBP1B in Pseudomonas aeruginosa 27853 membranes
[4] = Inhibition of Bocillin FL binding to PBP2 in Escherichia coli MC4100 membranes; type: cell membranes
[5] = Inhibition of Bocillin FL binding to PBP1A in Pseudomonas aeruginosa PAO1 membranes
[6] = Inhibition of Bocillin FL binding to PBP2 in Pseudomonas aeruginosa PAO1 membranes
[7] = Inhibition of Bocillin FL binding to PBP5 in Escherichia coli MC4100 membranes; type: cell membranes
[8] = Inhibition of Bocillin FL binding to PBP1B in Pseudomonas aeruginosa PAO1 membranes
[9] = Inhibition of Bocillin FL binding to PBP5/6 in Pseudomonas aeruginosa 27853 membranes
[10] = Inhibition of Bocillin FL binding to PBP4 in Pseudomonas aeruginosa 27853 membranes
[11] = Inhibition of Bocillin FL binding to PBP4 in Escherichia coli MC4100 membranes; type: cell membranes
[12] = Inhibition of Bocillin FL binding to PBP2 in Pseudomonas aeruginosa 27853 membranes
[13] = Inhibition of Bocillin FL binding to PBP1B in Escherichia coli MC4100 membranes; type: cell membranes
[14] = Inhibition of Bocillin FL binding to PBP1A in Pseudomonas aeruginosa 27853 membranes
[15] = Inhibition of Bocillin FL binding to PBP6 in Escherichia coli MC4100 membranes; type: cell membranes
[16] = Inhibition of Bocillin FL binding to PBP1A in Escherichia coli MC4100 membranes; type: cell membranes
[17] = Inhibition of Bocillin FL binding to PBP3 in Pseudomonas aeruginosa 27853 membranes
[18] = Inhibition of Bocillin FL binding to PBP3 in Escherichia coli MC4100 membranes; type: cell membranes
[19] = Inhibition of Bocillin FL binding to PBP3 in Pseudomonas aeruginosa PAO1 membranes
Escherichia coli [20] = experiment: Antimicrobial activity against Escherichia coli MC4100 by CLSI protocol based broth microdilution method; type: functional
Pseudomonas aeruginosa [21] = experiment: Antimicrobial activity against Pseudomonas aeruginosa PAO1 by CLSI protocol based broth microdilution method; type: functional
Pseudomonas aeruginosa [22] = experiment: Antimicrobial activity against Pseudomonas aeruginosa 27853 by CLSI protocol based broth microdilution method; type: functional
Escherichia coli [23] = experiment: Induction of morphological changes in Escherichia coli MC4100 assessed as induction of sphere formation at antimicrobial MIC after 4 hrs by microscopy; type: functional, organism-based
Pseudomonas aeruginosa [24] = experiment: Induction of morphological changes in Pseudomonas aeruginosa 27853 assessed as induction of sphere formation at antimicrobial MIC after 60 mins by microscopy; type: functional, organism-based
Pseudomonas aeruginosa [25] = experiment: Induction of morphological changes in Pseudomonas aeruginosa 27853 assessed as increase in cell length at antimicrobial MIC after 240 mins by microscopy; type: functional, organism-based
Pseudomonas aeruginosa [26] = experiment: Induction of morphological changes in Pseudomonas aeruginosa 27853 assessed as induction of sphere formation at antimicrobial MIC after 240 mins by microscopy; type: functional, organism-based
Pseudomonas aeruginosa [27] = experiment: Induction of morphological changes in Pseudomonas aeruginosa 27853 assessed as increase in cell length at antimicrobial MIC after 60 mins by microscopy; type: functional, organism-based

| SMILES | IC50 [1] [µg/mL] | IC50 [2] [µg/mL] | IC50 [3] [µg/mL] | IC50 [4] [µg/mL] | IC50 [5] [µg/mL] | IC50 [6] [µg/mL] | IC50 [7] [µg/mL] | IC50 [8] [µg/mL] | IC50 [9] [µg/mL] | IC50 [10] [µg/mL] | IC50 [11] [µg/mL] | IC50 [12] [µg/mL] | IC50 [13] [µg/mL] | IC50 [14] [µg/mL] | IC50 [15] [µg/mL] | IC50 [16] [µg/mL] | IC50 [17] [µg/mL] | IC50 [18] [µg/mL] | IC50 [19] [µg/mL] | MIC (Escherichia coli [20]) [µg/mL] | also measured |
| --- | --- | --- | --- | --- | --- | --- | --- | --- | --- | --- | --- | --- | --- | --- | --- | --- | --- | --- | --- | --- | --- |
| C[C@H]1[C@H](NC(=O)/C(=N\OC(C)(C)C(=O)O)c2csc(N)n2)C(=O)N1S(=O)(=O)O [AZTREONAM] | 16 (≈ 36.7 µM) | > 16 | 2 (≈ 4.59 µM) | > 8 | 2 (≈ 4.59 µM) | 16 (≈ 36.7 µM) | > 8 | 2 (≈ 4.59 µM) | > 4 | > 4 | > 8 | 4 (≈ 9.19 µM) | > 8 | 2 (≈ 4.59 µM) | > 8 | > 8 | < 0.02 | 0.03 (≈ 0.0689 µM) | 0.03 (≈ 0.0689 µM) | – | – |
| CC(C)(O/N=C(\C(=O)N[C@@H]1C(=O)N2C(C(=O)[O-])=C(C[n+]3ccccc3)CS[C@H]12)c1csc(N)n1)C(=O)O [CEFTAZIDIME] | 2 (≈ 3.66 µM) | > 32 | 1.6 (≈ 2.93 µM) | 4 (≈ 7.32 µM) | 0.2 (≈ 0.366 µM) | > 32 | > 4 | 3 (≈ 5.49 µM) | > 4 | 2 (≈ 3.66 µM) | > 4 | 4 (≈ 7.32 µM) | 1.1 (≈ 2.01 µM) | 0.3 (≈ 0.549 µM) | > 4 | 1.1 (≈ 2.01 µM) | 0.1 (≈ 0.183 µM) | 0.07 (≈ 0.128 µM) | 0.1 (≈ 0.183 µM) | 0.12 (≈ 0.22 µM) | MIC (Pseudomonas aeruginosa [21]): 1 µg/mL (≈ 1.83 µM); MIC (Pseudomonas aeruginosa [22]): 1 µg/mL (≈ 1.83 µM) |
| C[C@@H](O)[C@H]1C(=O)N2C(C(=O)O)=C(S[C@@H]3CN[C@H](CNS(N)(=O)=O)C3)[C@H](C)[C@H]12 [DORIPENEM] | 0.008 (≈ 0.019 µM) | 8 (≈ 19 µM) | 0.6 (≈ 1.43 µM) | 0.008 (≈ 0.019 µM) | 0.5 (≈ 1.19 µM) | 0.06 (≈ 0.143 µM) | 4 (≈ 9.51 µM) | 0.6 (≈ 1.43 µM) | > 4 | < 0.008 | 0.02 (≈ 0.0476 µM) | 0.04 (≈ 0.0951 µM) | 1.2 (≈ 2.85 µM) | 0.8 (≈ 1.9 µM) | 1 (≈ 2.38 µM) | 1.2 (≈ 2.85 µM) | 0.06 (≈ 0.143 µM) | 2 (≈ 4.76 µM) | 0.07 (≈ 0.166 µM) | 0.03 (≈ 0.0713 µM) | Activity (Escherichia coli [23]): Active; Activity (Pseudomonas aeruginosa [24]): Active; Activity (Pseudomonas aeruginosa [25]): Active; MIC (Pseudomonas aeruginosa [21]): 0.25 µg/mL (≈ 0.595 µM); MIC (Pseudomonas aeruginosa [22]): 0.25 µg/mL (≈ 0.595 µM) |
| C[C@@H](O)[C@H]1C(=O)N2C(C(=O)O)=C(SCCNC=N)C[C@H]12 [IMIPENEM ANHYDROUS] | 0.008 (≈ 0.0267 µM) | 2 (≈ 6.68 µM) | 0.1 (≈ 0.334 µM) | 0.008 (≈ 0.0267 µM) | 0.1 (≈ 0.334 µM) | 0.1 (≈ 0.334 µM) | 0.4 (≈ 1.34 µM) | 0.2 (≈ 0.668 µM) | 1 (≈ 3.34 µM) | < 0.008 | 0.01 (≈ 0.0334 µM) | 0.1 (≈ 0.334 µM) | 0.4 (≈ 1.34 µM) | 0.1 (≈ 0.334 µM) | 0.1 (≈ 0.334 µM) | 0.5 (≈ 1.67 µM) | 0.3 (≈ 1 µM) | 8 (≈ 26.7 µM) | 0.09 (≈ 0.301 µM) | 0.25 (≈ 0.835 µM) | Activity (Escherichia coli [23]): Active; Activity (Pseudomonas aeruginosa [26]): Active; MIC (Pseudomonas aeruginosa [21]): 1 µg/mL (≈ 3.34 µM); MIC (Pseudomonas aeruginosa [22]): 2 µg/mL (≈ 6.68 µM) |
| C[C@@H](O)[C@H]1C(=O)N2C(C(=O)O)=C(S[C@@H]3CN[C@H](C(=O)N(C)C)C3)[C@H](C)[C@H]12 [MEROPENEM] | 0.008 (≈ 0.0209 µM) | 16 (≈ 41.7 µM) | 0.6 (≈ 1.56 µM) | 0.008 (≈ 0.0209 µM) | 0.5 (≈ 1.3 µM) | 0.05 (≈ 0.13 µM) | 4 (≈ 10.4 µM) | 0.5 (≈ 1.3 µM) | > 4 | 0.02 (≈ 0.0522 µM) | 0.02 (≈ 0.0522 µM) | 0.06 (≈ 0.156 µM) | 1.3 (≈ 3.39 µM) | 0.6 (≈ 1.56 µM) | 0.03 (≈ 0.0782 µM) | 1.7 (≈ 4.43 µM) | 0.08 (≈ 0.209 µM) | 0.6 (≈ 1.56 µM) | 0.08 (≈ 0.209 µM) | 0.03 (≈ 0.0782 µM) | Activity (Escherichia coli [23]): Active; Activity (Pseudomonas aeruginosa [25]): Active; Activity (Pseudomonas aeruginosa [27]): Active; MIC (Pseudomonas aeruginosa [21]): 0.5 µg/mL (≈ 1.3 µM); MIC (Pseudomonas aeruginosa [22]): 0.25 µg/mL (≈ 0.652 µM) |
